For orientation: Kd means a measure of binding affinity in units of concentration. Lower therefore signals tighter binding.

Molecules are shown by their SMILES.

Assay [1] deals with T1, Leucyl-tRNA synthetase (LRS) (Homo sapiens, UniProt Q9P2J5). Nature of the assay: SPR (Biacore T-200, immobilised His-LRS). Format: binding. Details: gene LARS1; His-LRS WT. (In general: SPR reads the build-up and loss of mass on a sensor chip optically.)
In assay [2] the target is T1, Leucyl-tRNA synthetase (LRS). Nature of the assay: HDX-MS (with BC-LI-0198) and thermal shift. Format: binding. Details: gene LARS1; human full-length LRS, N-terminal His9-tag.

T1 sequence (Q9P2J5 whole entry): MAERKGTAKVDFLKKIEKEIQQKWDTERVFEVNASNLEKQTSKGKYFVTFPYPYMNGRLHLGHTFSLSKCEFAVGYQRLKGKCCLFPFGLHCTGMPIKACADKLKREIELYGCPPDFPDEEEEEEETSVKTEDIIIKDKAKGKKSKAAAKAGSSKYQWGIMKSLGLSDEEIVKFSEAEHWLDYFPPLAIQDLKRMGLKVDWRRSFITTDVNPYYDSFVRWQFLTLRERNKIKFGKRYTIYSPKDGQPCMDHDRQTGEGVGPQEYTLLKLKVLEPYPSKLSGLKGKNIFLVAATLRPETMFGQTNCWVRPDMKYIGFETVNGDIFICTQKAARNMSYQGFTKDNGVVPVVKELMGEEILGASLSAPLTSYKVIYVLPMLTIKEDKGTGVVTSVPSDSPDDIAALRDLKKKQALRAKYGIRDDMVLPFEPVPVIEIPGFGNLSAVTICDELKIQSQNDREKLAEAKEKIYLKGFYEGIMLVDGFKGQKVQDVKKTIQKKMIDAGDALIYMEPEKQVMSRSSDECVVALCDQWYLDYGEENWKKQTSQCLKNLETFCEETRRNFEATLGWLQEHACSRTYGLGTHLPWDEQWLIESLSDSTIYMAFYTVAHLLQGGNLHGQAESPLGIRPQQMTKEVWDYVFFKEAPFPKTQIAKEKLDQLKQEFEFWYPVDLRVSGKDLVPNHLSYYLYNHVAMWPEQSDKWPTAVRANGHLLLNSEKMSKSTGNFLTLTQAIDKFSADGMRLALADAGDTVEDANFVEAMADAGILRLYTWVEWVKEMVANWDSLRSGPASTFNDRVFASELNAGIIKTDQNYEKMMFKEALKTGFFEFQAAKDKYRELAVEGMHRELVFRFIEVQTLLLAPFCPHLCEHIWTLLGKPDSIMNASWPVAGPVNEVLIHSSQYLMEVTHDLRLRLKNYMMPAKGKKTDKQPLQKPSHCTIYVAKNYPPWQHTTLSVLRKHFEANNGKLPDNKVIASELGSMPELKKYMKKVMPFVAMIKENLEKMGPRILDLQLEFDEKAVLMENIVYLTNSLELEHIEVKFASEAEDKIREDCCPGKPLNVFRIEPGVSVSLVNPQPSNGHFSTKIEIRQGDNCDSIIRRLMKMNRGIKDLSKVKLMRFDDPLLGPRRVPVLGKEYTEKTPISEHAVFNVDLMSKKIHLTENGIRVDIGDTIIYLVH

Consider `Cc1c(C(C)C)c(=O)n(-c2ccc(S(=O)(=O)NCCOc3ccccc3)cc2)n1C` [BC-LI-0186], for which, in assay [1], the Kd turned out to be 42.1 nM.
As for `CC(C)C[C@H](N)C(=O)NS(=O)(=O)OC[C@H]1O[C@@H](n2cnc3c(N)ncnc32)[C@H](O)[C@@H]1O` [Leu-AMS], the “HDX-MS (with BC-LI-0198) and thermal shift” value in assay [2] was “HDX)-MS assays for LRS bound to BC-LI-0198 and Leu-AMS, a leucyl-sulfamoyl-adenylate analog of leucyl adenylate”.

These data come from publication PMC5622079, “Control of leucine-dependent mTORC1 pathway through chemical intervention of leucyl-tRNA synthetase and RagD interaction” (Nature Communications, 2017).
